From patent US20090105266A1, “Organic compounds” (priority 2007, published 2009)

Target: T1, mGluR5 (Homo sapiens, UniProt P41594)
T1 construct: expressed in transfected cells
Test: inhibition of the glutamate (agonist) induced elevation of the inositol phosphate turnover
Assay type: cell-based
Details: inhibition of glutamate induced elevation of inositol phosphate turnover at 0.1 μM
Description: This can be determined in vitro for example at recombinant human metabotropic glutamate receptors, especially PLC-coupled subtypes thereof such as mGluR5, using different procedures like, for example, measurement of the inhibition of the agonist induced elevation of intracellular Ca^2+ concentration in accordance with L. P. Daggett et al., Neuropharm. Vol. 34, pages 871-886 (1995), P. J. Flor et al., J. Neurochem. Vol. 67, pages 58-63 (1996) or by determination to what extent the agonist induced elevation of the inositol phosphate turnover is inhibited as described by T. Knoepfel et al., Eur. J. Pharmacol. Vol. 288, pages 389-392 (1994), L. P. Daggett et al., Neuropharm. Vol. 67, pages 58-63 (1996) and references cited therein. Isolation and expression of human mGluR subtypes are described in U.S. Pat. No. 5,521,297. Selected agents of the invention show IC50 values for the inhibition of the agonist (e.g. glutamate or quisqualate) induced elevation of intracellular Ca2+ concentration or the agonist (e.g. glutamate or quisqualate) induced inositol phosphate turnover, measured in recombinant cells expressing hmGluR^5a of about 0.1 nM to about 50 μM.
Activity of compounds of the present invention was examined by determination to what extent the agonist induced elevation of the inositol phosphate turnover is inhibited as described by T. Knoepfel et al., Eur. J. Pharmacol. Vol. 288, pages 389-392 (1994), L. P. Daggett et al., Neuropharm. Vol. 67, pages 58-63 (1996) and references cited therein.
The table below represents percentages of inhibition of the glutamate induced elevation of the inositol phosphate turnover at a concentration of 0.1 μM.

T1 sequence (P41594 21-1180 isoform P41594-2 limits assumed): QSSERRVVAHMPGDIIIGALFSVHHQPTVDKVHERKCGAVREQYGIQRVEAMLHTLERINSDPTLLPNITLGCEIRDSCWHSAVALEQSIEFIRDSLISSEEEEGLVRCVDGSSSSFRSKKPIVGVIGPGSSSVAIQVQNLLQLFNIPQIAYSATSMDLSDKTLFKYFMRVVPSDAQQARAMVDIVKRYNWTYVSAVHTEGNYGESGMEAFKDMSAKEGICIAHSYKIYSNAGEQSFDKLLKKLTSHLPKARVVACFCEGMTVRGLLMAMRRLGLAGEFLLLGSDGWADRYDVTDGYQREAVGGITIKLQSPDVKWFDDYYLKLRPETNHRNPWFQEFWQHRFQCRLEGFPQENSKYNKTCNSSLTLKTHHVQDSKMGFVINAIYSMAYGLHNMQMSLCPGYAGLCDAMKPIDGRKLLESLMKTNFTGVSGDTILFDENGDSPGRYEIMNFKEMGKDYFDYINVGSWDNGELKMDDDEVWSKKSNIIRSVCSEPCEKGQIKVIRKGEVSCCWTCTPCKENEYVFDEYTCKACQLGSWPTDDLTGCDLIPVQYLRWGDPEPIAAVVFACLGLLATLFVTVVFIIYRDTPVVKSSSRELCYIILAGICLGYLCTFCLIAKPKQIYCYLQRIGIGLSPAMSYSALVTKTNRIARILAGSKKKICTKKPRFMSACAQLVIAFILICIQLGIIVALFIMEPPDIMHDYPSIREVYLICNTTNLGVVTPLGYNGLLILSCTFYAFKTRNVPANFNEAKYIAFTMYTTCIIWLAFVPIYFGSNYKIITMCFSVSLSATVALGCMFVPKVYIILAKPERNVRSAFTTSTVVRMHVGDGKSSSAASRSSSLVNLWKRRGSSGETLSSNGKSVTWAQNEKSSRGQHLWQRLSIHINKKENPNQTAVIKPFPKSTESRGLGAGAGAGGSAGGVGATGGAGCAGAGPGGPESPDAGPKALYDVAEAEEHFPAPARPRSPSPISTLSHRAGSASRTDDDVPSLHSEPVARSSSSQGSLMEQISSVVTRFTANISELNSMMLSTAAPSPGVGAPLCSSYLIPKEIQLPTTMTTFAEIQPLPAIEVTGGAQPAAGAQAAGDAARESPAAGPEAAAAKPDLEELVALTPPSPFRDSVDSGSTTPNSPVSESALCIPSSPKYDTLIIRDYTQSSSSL

Row | Compound | inhibition at 0.1 µM
1 | CCCn1c(-c2ccc(Nc3ccc(Cl)cc3)nc2)nc2ccc(F)cc21 [Example 104, (4-Chloro-phenyl)-[5-(6-fluoro-1-propyl-1H-benzoimidazol-2-yl)-pyridin-2-yl]-amine] | 84%
2 | CCCn1c(-c2ccc(Nc3ccc(C)nc3)nc2)nc2ccc(F)cc21 [Example 105, [5-(6-Fluoro-1-propyl-1H-benzoimidazol-2-yl)-pyridin-2-yl]-(6-methyl-pyridin-3-yl)-amine] | 85%
3 | CCCn1c(-c2ccc(Nc3ccc(C)cc3)nc2)nc2ccc(F)cc21 [Example 106, [5-(6-Fluoro-1-propyl-1H-benzoimidazol-2-yl)-pyridin-2-yl]-p-tolyl-amine] | 70%
4 | CCCn1c(-c2ccc(Nc3ccc(OC)cc3)nc2)nc2ccc(F)cc21 [Example 107, [5-(6-Fluoro-1-propyl-1H-benzoimidazol-2-yl)-pyridin-2-yl]-(4-methoxy-phenyl)-amine] | 64%
5 | Cc1ccc(Nc2ccc(-c3nc4cccc(Cl)c4n3CC(C)C)cn2)cc1 [Example 108, [5-(7-Chloro-1-isobutyl-1H-benzoimidazol-2-yl)-pyridin-2-yl]-p-tolyl-amine] | 98%
6 | CC(C)Cn1c(-c2ccc(Nc3ccc(Cl)cc3)nc2)nc2cccc(Cl)c21 [Example 109, [5-(7-Chloro-1-isobutyl-1H-benzoimidazol-2-yl)-pyridin-2-yl]-(4-chloro-phenyl)-amine] | 91%
7 | COc1ccc(Nc2ccc(-c3nc4cccc(Cl)c4n3CC(C)C)cn2)cc1 [Example 110, [5-(7-Chloro-1-isobutyl-1H-benzoimidazol-2-yl)-pyridin-2-yl]-(4-methoxy-phenyl)-amine] | 95%
8 | Cc1ccc(Nc2ccc(-c3nc4cccc(Cl)c4n3CC(C)C)cn2)cn1 [Example 111, [5-(7-Chloro-1-isobutyl-1H-benzoimidazol-2-yl)-pyridin-2-yl]-(6-methyl-pyridin-3-yl)-amine] | 97%
9 | CCCn1c(-c2cnc(Nc3ccc(OC)cc3)c(Cl)c2)nc2ccccc21 [Example 114, [3-Chloro-5-(1-propyl-1H-benzoimidazol-2-yl)-pyridin-2-yl]-(4-methoxy-phenyl)-amine] | 99%
10 | COc1ccc(Nc2ncc(-c3nc4cccc(Cl)c4n3CC(C)C)cc2Cl)cc1 [Example 114b, [3-chloro-5-(7-chloro-1-isobutyl-1H-benzoimidazol-2-yl)-pyridin-2-yl]-(4-methoxy-phenyl)-amine] | 100%
11 | Cc1ccc(Nc2ncc(-c3nc4cccc(Cl)c4n3CC(C)C)cc2Cl)cn1 [Example 114c, [3-chloro-5-(7-chloro-1-isobutyl-1H-benzoimidazol-2-yl)-pyridin-2-yl]-(6-methyl-pyridin-3-yl)-amine] | 111%
12 | CCCn1c(-c2ccc(Nc3ccc(OC)cc3)nc2)nc2cccc(F)c21 [Example 114d, [5-(7-fluoro-1-propyl-1H-benzoimidazol-2-yl)-pyridin-2-yl]-(4-methoxy-phenyl)-amine] | 82%
13 | CCCn1c(-c2ccc(Nc3ccc(C)nc3)c(Cl)c2)nc2ccc(F)cc21 [Example 115, [2-Chloro-4-(6-Fluoro-1-propyl-1H-benzoimidazol-2-yl)-phenyl]-(6-methyl-pyridin-3-yl)-amine] | 99%
14 | Cc1ccc(Nc2ccc(-c3nc4cccc(Cl)c4n3CC(C)C)cc2Cl)cn1 [Example 116, [2-Chloro-4-(7-Chloro-1-isobutyl-1H-benzoimidazol-2-yl)-phenyl]-(6-methyl-pyridin-3-yl)-amine] | 100%
